# Reference: patent publication US20210205292A1, “INHIBITORS OF CREB-CBP INTERACTION FOR TREATMENT OF LEUKEMIA” (The Board of Trustees of the Leland Stanford Junior …, priority 2016, published 2021)
# Where “and” joins values, the source holds several entries; their conditions need not be identical. Equal values may be shown once.
# Experiments:
# HL-60 AML cells = assay: HL-60 AML xenograft in NSG mice; type: in vivo; conditions: for GFP+ cells in bone marrow / GFP+ cells in spleen / spleen weight: endpoint
# Protocol: For AML xenograft mouse experiments, HL-60 cells (2×10^6) expressing firefly luciferase and GFP, or cryopreserved human AML patient cells (5×10^6), were injected through the tail vein into NOD.Cg-prkdc^scid Il2rg^tm1WjlSzJ (NSG) mice. Mice were then Compound A or 10% DMSO, injected intravenously by tail vein daily, until death or an endpoint was reached (moribundity) in accordance with the animal care institutional guidelines. All mouse experiments were subject to institutional approval by Stanford University Institutional Animal Care and Use Committee. Leukemia progression in mice at the indicated time points was monitored using an in vivo IVIS 100 bioluminescenceoptical imaging system (Xenogen Corporation). D-Luciferin (Promega) dissolved in sterile phosphate-buffered saline was injected intraperitoneally at a dose of 2.5 mg/kg, 15 minutes before measuring the luminescent signal. General anesthesia was induced with […] and continued during the procedure using a nose cone. Analysis was performed on Living Image In Vivo imaging software (Perkin-Elmer). Imaging was performed in collaboration with the Stanford Small Animal Imaging Facility. Bone marrow was aspirated from bone marrow cavities, and GFP+ cells were sorted using the FACSCalibur flow cytometer (BD Biosciences).
# To examine the efficacy of CREB inhibition in an in vivo model of AML, 4-6 week old NOD.Cg-Prkdc^scid Il2rg^tm1WjlSzJ (NSG) mice were tail-vein injected with HL-60 AML cells (2×10^6) expressing Firefly luciferase and GFP. Groups of ten mice received 10% DMSO or 2.3 mg/kg Compound A intravenously (IV) once daily starting the day after cell injection (immediate treatment groups), or one of the same two treatments starting seven days after AML cell injection (delayed treatment groups). This dose of Compound A was selected, as it was the maximum deliverable IV injection concentration and volume in 10% DMSO solution per gram mouse body weight. […] The efficacy of Compound A was also assessed in a mouse xenograft model using primary AML cell sample (patient sample #186), using similar methods.
# CREB phosphorylation = CREB phosphorylation in HL-60 cells; type: cell-based, human
# Text: FIG. 12, panels A-D, illustrates the results of CyTOF Phenotyping and Compound A Combination Studies. […] Viability for Compound A treatment alone was 87.4±7.3%, versus 55.3±3.4% and 49.5±2.3% when combined with ERK and RSK inhibitors, respectively (* indicates p<0.05 compared to cells treated with Compound A alone). Panel D) Compound A inhibits CREB phosphorylation in the presence of serum. HL-60 cells were serum-starved then stimulated with serum.
# Cells were lysed in RIPA buffer (Sigma), and the protein concentrations were determined by BCA assay (Thermo Scientific Pierce). Lysates were solubilized in 6×SDS PAGE buffer and […] of protein was loaded into 6-15% SDS PAGE gels, pheresed, and then transferred onto […] PVDF membrane (Millipore). Primary antibodies were applied at a dilution of 1:1000. Anti-Bcl-2, -Bax, -Mcl-1, -Bcl-XL, -Cyclin A and -Cyclin D1 antibodies were purchased from Cell Signaling Technologies. Anti-total acetylated histone and -ac-H3K27 were purchased from Santa Cruz Biotechnologies. Anti-actin and -CREB antibodies were purchased from upstate. Secondary antibodies were used at a 1:2500 dilution and purchased from Thermo Scientific/Pierce. WesternBright ECL was used for image acquisition on Image Lab software (Bio-Rad).
# [1] = molecular target: T1, CREB-CBP binding (KID-KIX) (Homo sapiens, UniProt Q92793); assay: Split Renilla luciferase complementation assay; type: cell-based; conditions: 293T cells treated with forskolin; read-out: IC50, inhibition of the interaction between CREB and CBP
# T1 construct: the KID and KIX domains were fused to the N- and C-terminal regions of Renilla luciferase, respectively; expressed in transfected cells; host or cells: 293T cells treated with forskolin
# Protocol: (§1) KG-1 cell lines were created to express luciferase in a CREB-dependent or non-CREB-dependent fashion using lentiviral gene delivery. Cells were sorted for mCherry expression by flow cytometry and selected with puromycin. Luciferase activity was measured on a […] using the Promega Luciferase Activity Kit (Promega) per manufacturer's instructions following six hours of treatment with Compound A or 0.1% DMSO. The split Renilla luciferase complementation assay has been described previously (Li BX, and Xiao X. Discovery of a small-molecule inhibitor of the KIX-KID interaction. Chembiochem: a European journal of chemical biology. 2009; 10(17):2721-4). In this assay, the KID and KIX domains were fused to the N- and C-terminal regions of Renilla luciferase, respectively. Once KIX binds phosphorylated KID, the Renilla luciferase regions were brought together, resulting in luciferase activity.
# (§2) To test the ability of Compound A to disrupt CREB-CBP binding in cells, a split Renilla luciferase complementation assay was performed. […] This early timepoint was selected to permit accurate reporter gene activity measurement prior to the onset of anticipated global cell dysfunction or death induced by Compound A. Treatment with 3 μM Compound A reduced luciferase activity by 33.2±7.7% at this timepoint. […] Thus, Compound A inhibits CREB function through disruption of CREB:CBP interaction.
# CMV-driven promoter = assay: CMV-driven luciferase reporter in KG-1 cells; type: cell-based; conditions: 6 hours
# Protocol: as §1, §2
# [2] = delayed treatment group (from day 7), 2.3 mg/kg IV once daily
# [3] = immediate treatment group, 2.3 mg/kg IV once daily
# T1 sequence (Q92793 587-666 limits assumed): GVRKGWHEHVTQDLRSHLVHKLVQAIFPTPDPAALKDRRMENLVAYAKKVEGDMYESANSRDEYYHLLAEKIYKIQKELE
smiles,measurement,setting,value
"N#Cc1ccc(NC(=O)c2cc3ccccc3cc2O)cc1 [Compound A, N-(4-cyanophenyl)-3-hydroxy-2-naphthamide]",mean weight of visceral tumors,HL-60 AML cells; Compound A-treated group,0.027 ± 0.019 g
same,mice that developed visible visceral tumors (chloromas),HL-60 AML cells; Compound A-treated group,4 of 10
same,liver weights,HL-60 AML cells; across groups,no differences in liver weights
same,circulating leukemia cells (blood counts and smear),HL-60 AML cells; at the time of sacrifice,none of the Compound A-treated mice had detectable circulating leukemia cells
same,GFP+ cells in bone marrow,HL-60 AML cells; delayed group,19.9±8.22%
same,GFP+ cells in spleen,HL-60 AML cells; delayed group,4.1±1.44%
same,spleen weight,HL-60 AML cells; delayed group,50.6 ± 9.1 mg
same,mean survival,HL-60 AML cells; [2],26.4 days
same,median survival,HL-60 AML cells; [2],24 days
same,average radiance (bioluminescence imaging),"HL-60 AML cells; delayed treatment, 2.3 mg/kg IV once daily, day 17",2.8×10^5 p/sec/cm^2/sr
same,GFP+ cells in bone marrow,HL-60 AML cells; immediate group,9.3±1.28%
same,GFP+ cells in spleen,HL-60 AML cells; immediate group,0.64±0.27%
same,spleen weight,HL-60 AML cells; immediate group,43.3 ± 3.6 mg
same,mean survival,HL-60 AML cells; [3],31.2 days
same,median survival,HL-60 AML cells; [3],31 days
same,CREB phosphorylation in the presence of serum,"CREB phosphorylation; HL-60 cells serum-starved then stimulated with serum, 48 hours",CREB phosphorylation decreases
same,CREB phosphorylation,"CREB phosphorylation; HL-60 cells, 24 hours",increase in CREB phosphorylation
same,IC50,[1],~3.2 µM and 3.2 µM
same,CMV-driven luciferase expression,CMV-driven promoter,unchanged
